Ki data for 1 molecule are collected here from BindingDB's records for doi:10.1124/jpet.104.066092 (Wyeth Research, 2004).

The target of this assay is Glutamate receptor ionotropic, NMDA 1 (Rattus norvegicus, UniProt P35439).

Molecules are shown by their SMILES.

`O=C(O)[C@@H]1C[C@H](CP(=O)(O)O)CCN1` [Selfotel]: the Ki – broadly, a dissociation constant, usually derived from enzyme kinetics or from competition with a known ligand – is more than 10 µM.
